From patent publication US6762170B1, “2-(purin-9-yl)-tetrahydrofuran-3,4-diol derivatives” (SmithKlineBeecham Corporation, priority 1998, dated 2004)
Counter-ions that a name gives are not always drawn.

Tests used:
Type in all cases: cell-based
Adenosine 2a receptor = target: T1, Adenosine 2a receptor (Homo sapiens, UniProt P29274); experiment: Agonist activity against adenosine 2a receptor subtype (CHO cells, cAMP response element/SPAP reporter); conditions: EC50 ratio to NECA; transfected CHO cells, basal cAMP reflected by SPAP
T1 construct: expressed in transfected cells; host or cells: Chinese hamster ovary (CHO) cells, co-transfected with a CRE-SPAP reporter
Experimental: (§1) (1) Agonist Activity Against Adenosine 2a, Adenosine 1 and Adenosine 3 Receptor Subtypes.
(§2) Agonist selectivity of compounds against other human adenosine receptors is determined using Chinese hamster ovary (CHO) cells transfected with the gene for the relevant human adenosine receptor following a method based on that of Castanon and Spevak, 1994. The CHO cells are also transfected with cyclic AMP response elements promoting the gene for secreted placental alkaline phosphatase (SPAP) (Wood, 1995). The effect of test compounds may be determined by their effects on basal levels of cAMP (A2a) or on forskolin-enhanced cAMP (A1 and A3) as reflected by changes in levels of SPAP. EC50 values for compounds may then be determined as a ratio to that of the non-selective agonist N-ethyl carboxamide adenosine (NECA).
(§3) Values given in the Table are EC50 values as a ratio of that of NECA.

Adenosine 3 receptor = target: T2, Adenosine 3 receptor (Homo sapiens, UniProt P0DMS8); experiment: Agonist activity against adenosine 3 receptor subtype (CHO cells, forskolin-enhanced cAMP, SPAP reporter); conditions: EC50 ratio to NECA; transfected CHO cells, forskolin-enhanced cAMP reflected by SPAP
T2 construct: expressed in transfected cells; host or cells: Chinese hamster ovary (CHO) cells, co-transfected with a CRE-SPAP reporter
T2 sequence (P0DMS8 1-318): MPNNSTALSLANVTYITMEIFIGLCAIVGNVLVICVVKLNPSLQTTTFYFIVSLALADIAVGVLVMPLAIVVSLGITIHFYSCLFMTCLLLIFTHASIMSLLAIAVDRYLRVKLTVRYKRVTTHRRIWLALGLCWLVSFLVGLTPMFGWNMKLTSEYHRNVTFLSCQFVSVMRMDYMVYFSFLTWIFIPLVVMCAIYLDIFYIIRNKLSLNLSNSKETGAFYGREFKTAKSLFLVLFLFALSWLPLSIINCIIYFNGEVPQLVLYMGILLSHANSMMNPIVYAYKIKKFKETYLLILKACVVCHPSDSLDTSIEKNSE
Experimental: as §1, §2, §3

Adenosine 1 receptor = target: T3, Adenosine 1 receptor (Homo sapiens, UniProt P30542); experiment: Agonist activity against adenosine 1 receptor subtype (CHO cells, forskolin-enhanced cAMP, SPAP reporter); conditions: EC50 ratio to NECA; transfected CHO cells, forskolin-enhanced cAMP reflected by SPAP
T3 construct: expressed in transfected cells; host or cells: Chinese hamster ovary (CHO) cells, co-transfected with a CRE-SPAP reporter
T3 sequence (P30542 1-326): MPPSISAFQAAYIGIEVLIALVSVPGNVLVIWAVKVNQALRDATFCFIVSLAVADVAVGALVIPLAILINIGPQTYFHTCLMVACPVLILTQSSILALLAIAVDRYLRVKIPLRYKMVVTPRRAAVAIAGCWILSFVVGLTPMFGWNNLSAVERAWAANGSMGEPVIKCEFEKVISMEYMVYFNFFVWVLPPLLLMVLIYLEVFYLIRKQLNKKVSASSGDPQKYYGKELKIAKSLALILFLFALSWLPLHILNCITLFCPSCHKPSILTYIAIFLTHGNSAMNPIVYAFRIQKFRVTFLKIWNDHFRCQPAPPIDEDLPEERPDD
Experimental: as §1, §2, §3

T1 sequence (P29274 whole entry): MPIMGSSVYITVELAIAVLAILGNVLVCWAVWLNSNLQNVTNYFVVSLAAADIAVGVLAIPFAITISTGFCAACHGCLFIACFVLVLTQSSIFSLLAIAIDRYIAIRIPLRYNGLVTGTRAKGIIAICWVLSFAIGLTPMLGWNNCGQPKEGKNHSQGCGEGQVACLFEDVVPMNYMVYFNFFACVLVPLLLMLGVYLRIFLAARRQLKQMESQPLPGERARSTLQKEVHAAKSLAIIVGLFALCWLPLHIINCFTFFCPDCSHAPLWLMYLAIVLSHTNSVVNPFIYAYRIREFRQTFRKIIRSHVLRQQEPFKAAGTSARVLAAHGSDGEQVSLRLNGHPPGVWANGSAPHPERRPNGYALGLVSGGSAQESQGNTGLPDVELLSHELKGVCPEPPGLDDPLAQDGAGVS

Structure (SMILES) | A2a (EC50 values as a ratio of that of NECA) (Adenosine 2a receptor) | A3 (EC50 values as a ratio of that of NECA) (Adenosine 3 receptor) | A1 (EC50 values as a ratio of that of NECA) (Adenosine 1 receptor)
CCc1cc([C@H]2O[C@@H](n3cnc4c(NC5CCOCC5)nc(NCCc5ccccn5)nc43)[C@H](O)[C@@H]2O)on1.O=CO.O=CO [Example 13, (2S,3S,4R,5R)-2-(3-Ethyl-isoxazol-5-yl)-5-[2-(2-pyridin-2-yl-ethylamino)-6-(tetrahydro-pyran-4-ylamino)-purin-9-yl]-tetrahydro-furan-3,4-diol diformate] | 3.03 | >146 | 61.9
CCc1cc([C@H]2O[C@@H](n3cnc4c(NC5CCOCC5)nc(NCCN5CCCCC5)nc43)[C@H](O)[C@@H]2O)on1.O=CO.O=CO [Example 14, (2S,3S,4R,5R)-2-(3-Ethyl-isoxazol-5-yl)-5-[2-(2-piperidin-1-yl-ethylamino)-6-(tetrahydro-pyran-4-ylamino)-purin-9-yl]-tetrahydro-furan-3,4-diol diformate] | 4.99 | >254 | 77.1
CCc1cc(C2OC(n3cnc4c(NC5CCOCC5)nc(NC(CO)Cc5ccccc5)nc43)C(O)C2O)on1 [Example 15, (2S,3S,4R,5R)-2-(3-Ethyl-isoxazol-5-yl)-5-[2-(1S-hydroxymethyl-2-phenyl-ethylamino)-6-(tetrahydro-pyran-4-ylamino)-purin-9yl]-tetrahydro-furan-3,4-diol formate] | 3.66 | >146 | 26.05
CCc1cc([C@H]2O[C@@H](n3cnc4c(NCC(c5ccccc5)c5ccccc5)nc(NCCNc5ccccn5)nc43)[C@H](O)[C@@H]2O)on1.O=CO.O=CO [Example 16, (2R,3R,4S,5S)-2-{6-(2,2-Diphenyl-ethylamino)-2-[2-(pyridin-2-ylamino)-ethylamino]-purin-9-yl}-5-(3-ethyl-isoxazol-5-yl)-tetrahydro-furan-3,4-diol diformate] | 0.35 | >1004 | 442
CCc1cc(C2OC(n3cnc4c(NCC(c5ccccc5)c5ccccc5)nc(NC(CO)Cc5ccccc5)nc43)C(O)C2O)on1 [Example 17, (2R,3R,4S,5S)-2-[6-(2,2-Diphenyl-ethylamino)-2-(1S-hydroxymethyl-2-phenyl-ethylamino)-purin-9-yl]-5-(3-ethyl-isoxazol-5-yl)-tetrahydro-furan-3,4-diol formate] | 0.34 | >298 | 1172
CCc1cc(C2OC(n3cnc4c(N)nc(NCCc5ccc(S(N)(=O)=O)cc5)nc43)C(O)C2O)on1 (stereo not drawn) [Example 18, 4-(2-{6-Amino-9-[5S-(3-ethyl-isoxazol-5-yl)-3R,4S-dihydroxy-tetrahydro-furan-2R-yl]-9H-purin-2-ylamino}-benzenesulfonamide formate] | 0.72 | >460 | 2580
CCc1cc(C2OC(n3cnc4c(NCc5cccc(I)c5)nc(NCCc5cn(C)cn5)nc43)C(O)C2O)on1.O=CO.O=CO [Example 20, (2S,3S,4R,5R)-2-(3-Ethyl-isoxazol-5-yl)-5-{6-(3-iodo-benzylamino)-2-[2-(1-methyl-1H-imidazol-4-yl)-ethylamino]-purin-9-yl}-tetrahydro-furan-3,4-diol diformate] | 2.04 | >267 | 310.9
CCc1cc(C2OC(n3cnc4c(NCCC5CCCCC5)nc(NCCc5cn(C)cn5)nc43)C(O)C2O)on1.O=CO.O=CO [Example 21, (2R,3R,4S,5S)-2-{6-(2-Cyclohexyl-ethylamino)-2-[2-(1-methyl-1H-imidazol-4-yl)-ethylamino]-purin-9-yl}5-(3-ethyl-isoxazol-5-yl)-tetrahydro-furan-3,4-diol diformate] | 1.55 | >267 | 1624.29
CCc1cc(C2OC(n3cnc4c(NCCC5CCCCC5)nc(NC(CO)Cc5ccccc5)nc43)C(O)C2O)on1 [Example 22, (2R,3R,4S,5S)-2-[6-(2-Cyclohexyl-ethylamino)-2-(1 S-hydroxy-methyl-2-phenyl-ethylamino)-purin-9-yl]-5-(3-ethyl-isoxazol-5-yl)-tetrahydro-furan-3,4-diol formate] | 9.17 | >254 | 8026.2
CCc1cc(C2OC(n3cnc4c(NCC(c5ccccc5)c5ccccc5)nc(NCCNC(=N)N)nc43)C(O)C2O)on1 (stereo not drawn) [Example 23, N-2-{6-(2,2-Diphenyl-ethylamino)-9-[5S-(3-ethyl-isoxazol-5-yl)-3R,4S-dihydroxy-tetrahydro-furan-2R-yl]-9H-purin-2-ylamino}-ethyl)-guanidine diformate] | 13.4 | >282 | >=3263
CCc1cc(C2OC(n3cnc4c(NCC(c5ccccc5)c5ccccc5)nc(NC5CCC(NC(C)=O)CC5)nc43)C(O)C2O)on1 (stereo not drawn) [Example 24, N-(4-{6-(2,2-Diphenyl-ethylamino)-9-[5S-(3-ethyl-isoxazol-5-yl)-3R,4S-dihydroxy-tetrahydro-furan-2R-yl]-9H-purin-2-ylamino}-cyclohexyl)-acetamide formate] | 0.23 | >248 | 573.6
CCc1cc(C2OC(n3cnc4c(NCCS(=O)(=O)NC)nc(NCCNC(=N)N)nc43)C(O)C2O)on1 (stereo not drawn) [Example 25, 2-[2-9-[5S-(3-Ethyl-isoxazol-5-yl)-3R,4S-dihydroxy-tetrahydro-furan-2R-yl]-2-(2-guanidino-ethylamino)-9H-purin-6-ylamino]-ethanesulfonic acid methylamide diformate] | 5.46 | >198 | 103.8
CCc1cc(C2OC(n3cnc4c(NC5CCS(=O)(=O)CC5)nc(NCCNC(=N)N)nc43)C(O)C2O)on1 (stereo not drawn) [Example 26, N-(2-{6-(1,1-Dioxo-hexahydro-1λ6-thiopyran-4-ylamino)-9-[5S-(3-ethyl-isoxazol-5-yl)-3R ,4S-dihydroxy-tetrahydro-furan-2R-yl]-9H-purin-2-ylamino}-ethyl)-guanidine diformate] | 6.89 | >286 | 273.3
CCc1cc(C2OC(n3cnc4c(NCCS(=O)(=O)NC)nc(NC(CO)Cc5ccccc5)nc43)C(O)C2O)on1 (stereo not drawn) [Example 27, 2-[9-[5S-(3-Ethyl-isoxazol-5-yl)-3R,4S-dihydroxy-tetrahydro-furan-2R-yl]-2-(1S-hydroxymethyl-2-phenyl-ethylamino)-9H-purin-6-ylamino]-ethanesulfonic acid methylamide formate] | 3 | >273 | 3.18
CCc1cc(C2OC(n3cnc4c(NC5CCN(C(C)=O)CC5)nc(NC(CO)Cc5ccccc5)nc43)C(O)C2O)on1 (stereo not drawn) [Example 28, 1-{4-[9-[5S-(3-Ethyl-isoxazol-5-yl)-3R,4S-dihydroxy-tetrahydro-furan-2R-yl]-2-(1S-hydroxymethyl-2-phenyl-ethylamino)-9H-purin-6-ylamino]-piperidin-1-yl}-ethanone formate] | 14.5 | >263 | 165.8
